According to ChEMBL document CHEMBL1141584, “Synthesis, biological evaluation and molecular modelling studies of methyleneimidazole substituted biaryls as inhibitors of human 17alpha-hydroxylase-17,20-lyase (CYP17). Part I: Heterocyclic modifications of the core structure” (Bioorg Med Chem, 2008):
pIC50: −log10 of the molar value. Values belong to the compound of their own block, whether it stands above or below them.

Assays:
CYP3A4 [1] = molecular target: T1, CYP3A4 (Homo sapiens, UniProt P08684); assay: Inhibition of recombinant CYP3A4 at 1 uM; assay type: ADME
T1 sequence (P08684 whole entry): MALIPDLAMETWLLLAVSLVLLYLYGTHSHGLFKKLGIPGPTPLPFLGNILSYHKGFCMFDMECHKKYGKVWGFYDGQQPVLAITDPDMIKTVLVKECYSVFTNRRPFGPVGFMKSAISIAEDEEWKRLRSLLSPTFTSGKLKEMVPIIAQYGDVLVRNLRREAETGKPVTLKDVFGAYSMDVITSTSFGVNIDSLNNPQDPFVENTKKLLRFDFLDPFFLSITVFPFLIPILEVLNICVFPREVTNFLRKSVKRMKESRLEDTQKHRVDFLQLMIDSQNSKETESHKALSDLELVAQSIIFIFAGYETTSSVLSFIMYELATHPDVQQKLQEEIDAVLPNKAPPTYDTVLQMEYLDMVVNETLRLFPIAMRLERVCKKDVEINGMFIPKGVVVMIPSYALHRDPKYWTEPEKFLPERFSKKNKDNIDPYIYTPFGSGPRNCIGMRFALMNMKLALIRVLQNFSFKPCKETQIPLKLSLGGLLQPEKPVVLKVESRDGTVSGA

[2] = molecular target: T2, Steroid 17-alpha-hydroxylase/17,20 lyase (Homo sapiens, UniProt P05093); assay: Inhibition of human CYP17 expressed in Escherichia coli co-expressed with NADPH-P450 reductase at 0.2 uM
T2 sequence (P05093 whole entry): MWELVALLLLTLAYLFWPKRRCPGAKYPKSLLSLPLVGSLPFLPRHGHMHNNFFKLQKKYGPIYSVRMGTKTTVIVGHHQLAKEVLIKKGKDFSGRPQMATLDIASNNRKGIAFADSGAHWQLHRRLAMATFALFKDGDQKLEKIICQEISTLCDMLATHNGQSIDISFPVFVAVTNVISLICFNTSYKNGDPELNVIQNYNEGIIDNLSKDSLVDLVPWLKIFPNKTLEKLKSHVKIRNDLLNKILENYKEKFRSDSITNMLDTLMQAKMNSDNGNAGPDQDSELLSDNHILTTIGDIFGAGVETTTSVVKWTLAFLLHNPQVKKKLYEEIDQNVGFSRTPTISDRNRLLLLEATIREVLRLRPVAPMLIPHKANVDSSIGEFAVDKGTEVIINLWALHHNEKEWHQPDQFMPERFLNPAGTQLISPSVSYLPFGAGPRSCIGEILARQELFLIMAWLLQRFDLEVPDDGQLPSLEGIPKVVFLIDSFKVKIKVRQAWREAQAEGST

[3] = molecular target: T2, Steroid 17-alpha-hydroxylase/17,20 lyase; assay: Inhibition of human CYP17 expressed in Escherichia coli co-expressed with NADPH-P450 reductase
[4] = molecular target: T2, Steroid 17-alpha-hydroxylase/17,20 lyase; assay: Inhibition of human CYP17 expressed in Escherichia coli co-expressed with NADPH-P450 reductase at 2 uM
CYP3A4 [5] = molecular target: T1, CYP3A4; assay: Inhibition of recombinant CYP3A4 at 10 uM; assay type: ADME
CYP2B6 [6] = molecular target: T3, CYP2B6 (Homo sapiens, UniProt P20813); assay: Inhibition of recombinant CYP2B6 at 1 uM; assay type: ADME
T3 sequence (P20813 whole entry): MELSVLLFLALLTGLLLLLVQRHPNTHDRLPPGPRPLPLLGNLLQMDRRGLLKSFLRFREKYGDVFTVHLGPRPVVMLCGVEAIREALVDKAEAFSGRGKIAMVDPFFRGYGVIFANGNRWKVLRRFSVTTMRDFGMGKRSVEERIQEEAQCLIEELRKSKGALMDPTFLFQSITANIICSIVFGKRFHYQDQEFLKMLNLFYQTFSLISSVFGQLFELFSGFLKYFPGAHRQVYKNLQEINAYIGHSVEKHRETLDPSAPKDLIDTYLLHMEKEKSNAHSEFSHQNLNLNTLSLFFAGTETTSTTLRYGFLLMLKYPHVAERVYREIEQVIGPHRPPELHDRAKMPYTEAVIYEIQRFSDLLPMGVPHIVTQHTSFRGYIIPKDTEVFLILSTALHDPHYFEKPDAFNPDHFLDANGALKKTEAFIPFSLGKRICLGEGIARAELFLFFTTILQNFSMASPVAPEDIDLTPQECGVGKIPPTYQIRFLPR

[7] = Cmax in Wistar rat at 50 mg/kg, po; assay type: ADME, organism-based; design: dose 50 mg/kg, route oral; conditions: in vivo
[8] = Terminal half life in Wistar rat plasma at 50 mg/kg, po; assay type: ADME, organism-based; design: dose 50 mg/kg, route oral
Rattus norvegicus [9] = assay: Reduction of testosterone level in Wistar rat plasma at 50 mg/kg, po after 1 hr by ELISA relative to pretreatment value; assay type: functional; design: scale not given: the % may be the effect or the level left
[10] = Total body clearance in Wistar rat at 50 mg/kg, po; assay type: ADME, organism-based; design: dose 50 mg/kg, route oral; conditions: in vivo
Rattus norvegicus [11] = assay: Reduction of testosterone level in Wistar rat plasma at 50 mg/kg, po after 6 hrs by ELISA relative to pretreatment value; assay type: functional; design: scale not given: the % may be the effect or the level left
CYP2B6 [12] = molecular target: T3, CYP2B6; assay: Inhibition of recombinant CYP2B6 at 10 uM; assay type: ADME
CYP2D6 [13] = molecular target: T4, CYP2D6 (Homo sapiens, UniProt P10635); assay: Inhibition of recombinant CYP2D6 at 10 uM; assay type: ADME
T4 sequence (P10635 whole entry): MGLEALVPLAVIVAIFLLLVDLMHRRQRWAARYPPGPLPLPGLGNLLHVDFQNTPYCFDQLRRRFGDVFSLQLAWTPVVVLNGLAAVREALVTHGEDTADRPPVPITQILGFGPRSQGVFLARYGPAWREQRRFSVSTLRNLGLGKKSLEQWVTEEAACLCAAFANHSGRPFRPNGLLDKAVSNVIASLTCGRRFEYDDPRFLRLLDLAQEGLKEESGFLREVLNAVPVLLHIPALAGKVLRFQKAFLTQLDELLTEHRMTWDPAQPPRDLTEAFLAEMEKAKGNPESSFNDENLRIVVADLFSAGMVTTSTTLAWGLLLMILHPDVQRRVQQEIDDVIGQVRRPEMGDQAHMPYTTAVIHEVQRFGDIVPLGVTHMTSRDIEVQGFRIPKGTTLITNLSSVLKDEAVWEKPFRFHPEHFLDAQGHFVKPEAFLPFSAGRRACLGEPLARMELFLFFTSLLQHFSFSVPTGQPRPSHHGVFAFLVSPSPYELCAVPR

CYP2C19 [14] = molecular target: T5, CYP2C19 (Homo sapiens, UniProt P33261); assay: Inhibition of recombinant CYP2C19 at 1 uM; assay type: ADME
T5 sequence (P33261 whole entry): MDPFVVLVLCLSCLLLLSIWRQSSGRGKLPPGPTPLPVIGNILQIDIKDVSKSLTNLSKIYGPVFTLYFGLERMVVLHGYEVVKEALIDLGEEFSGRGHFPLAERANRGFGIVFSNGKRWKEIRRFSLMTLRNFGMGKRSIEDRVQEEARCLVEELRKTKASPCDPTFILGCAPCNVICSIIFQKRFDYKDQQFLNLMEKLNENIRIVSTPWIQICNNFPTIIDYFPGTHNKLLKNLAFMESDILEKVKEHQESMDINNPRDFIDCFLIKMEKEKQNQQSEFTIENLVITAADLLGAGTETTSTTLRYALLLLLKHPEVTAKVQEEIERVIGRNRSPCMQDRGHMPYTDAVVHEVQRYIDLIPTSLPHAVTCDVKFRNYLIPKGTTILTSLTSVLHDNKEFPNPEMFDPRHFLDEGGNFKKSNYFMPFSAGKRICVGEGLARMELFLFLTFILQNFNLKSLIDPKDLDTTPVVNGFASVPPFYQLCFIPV

CYP2C9 [15] = molecular target: T6, CYP2C9 (Homo sapiens, UniProt P11712); assay: Inhibition of recombinant CYP2C9 at 10 uM; assay type: ADME
T6 sequence (P11712 whole entry): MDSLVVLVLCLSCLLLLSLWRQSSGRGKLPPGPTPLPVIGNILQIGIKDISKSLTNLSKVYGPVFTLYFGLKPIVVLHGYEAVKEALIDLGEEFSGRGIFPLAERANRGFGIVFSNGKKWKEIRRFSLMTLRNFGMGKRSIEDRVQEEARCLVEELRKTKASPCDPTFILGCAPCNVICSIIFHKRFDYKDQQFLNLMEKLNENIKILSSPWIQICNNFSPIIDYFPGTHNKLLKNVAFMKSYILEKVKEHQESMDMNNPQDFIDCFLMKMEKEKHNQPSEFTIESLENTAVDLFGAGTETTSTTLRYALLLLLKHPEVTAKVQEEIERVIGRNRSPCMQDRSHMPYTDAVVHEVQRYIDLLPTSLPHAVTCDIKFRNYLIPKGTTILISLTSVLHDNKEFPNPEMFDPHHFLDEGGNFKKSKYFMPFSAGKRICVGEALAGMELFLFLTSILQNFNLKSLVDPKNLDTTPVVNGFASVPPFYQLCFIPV

[16] = molecular target: T7, Steroid 17-alpha-hydroxylase/17,20 lyase (Rattus norvegicus, UniProt P11715); assay: Inhibition of Sprague-Dawley rat testicular CYP17
T7 sequence (P11715 whole entry): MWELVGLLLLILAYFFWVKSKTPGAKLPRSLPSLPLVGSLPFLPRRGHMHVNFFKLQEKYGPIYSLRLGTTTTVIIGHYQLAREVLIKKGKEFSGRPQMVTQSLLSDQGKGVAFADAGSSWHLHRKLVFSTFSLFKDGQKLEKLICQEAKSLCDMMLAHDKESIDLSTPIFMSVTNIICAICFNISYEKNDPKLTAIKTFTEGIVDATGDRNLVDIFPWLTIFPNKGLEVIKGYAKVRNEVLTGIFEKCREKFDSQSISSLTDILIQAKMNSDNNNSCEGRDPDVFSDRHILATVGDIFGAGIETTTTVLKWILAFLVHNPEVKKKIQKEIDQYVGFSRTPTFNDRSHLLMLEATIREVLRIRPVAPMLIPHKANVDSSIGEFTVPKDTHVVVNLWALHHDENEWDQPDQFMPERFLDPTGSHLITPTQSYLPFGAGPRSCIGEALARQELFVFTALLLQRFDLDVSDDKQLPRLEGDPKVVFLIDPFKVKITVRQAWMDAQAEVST

[17] = Tmax in Wistar rat at 50 mg/kg, po; assay type: ADME, organism-based; design: dose 50 mg/kg, route oral; conditions: in vivo
[18] = AUC (0 to infinity) in Wistar rat at 50 mg/kg, po; assay type: ADME, organism-based; design: time infinity, dose 50 mg/kg, route oral; conditions: plasma
CYP1A2 [19] = molecular target: T8, CYP1A2 (Homo sapiens, UniProt P05177); assay: Inhibition of recombinant CYP1A2 at 1 uM; assay type: ADME
T8 sequence (P05177 whole entry): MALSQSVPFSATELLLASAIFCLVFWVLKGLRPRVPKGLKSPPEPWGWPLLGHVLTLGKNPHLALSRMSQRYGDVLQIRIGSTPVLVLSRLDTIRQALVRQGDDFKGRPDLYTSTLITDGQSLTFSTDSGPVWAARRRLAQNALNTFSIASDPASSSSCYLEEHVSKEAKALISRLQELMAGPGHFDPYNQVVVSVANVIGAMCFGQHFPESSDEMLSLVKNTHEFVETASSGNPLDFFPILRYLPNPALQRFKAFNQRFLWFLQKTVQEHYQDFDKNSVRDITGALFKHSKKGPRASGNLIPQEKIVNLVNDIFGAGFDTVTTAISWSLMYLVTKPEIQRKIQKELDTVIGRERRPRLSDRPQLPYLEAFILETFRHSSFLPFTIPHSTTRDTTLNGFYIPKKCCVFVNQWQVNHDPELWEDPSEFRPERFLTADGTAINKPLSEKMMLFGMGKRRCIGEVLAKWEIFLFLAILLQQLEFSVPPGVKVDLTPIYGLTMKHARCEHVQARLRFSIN

CYP2C9 [20] = molecular target: T6, CYP2C9; assay: Inhibition of recombinant CYP2C9 at 1 uM; assay type: ADME
Rattus norvegicus [21] = assay: Reduction of testosterone level in Wistar rat at 50 mg/kg, po after 4 hrs by ELISA relative to pretreatment value; assay type: functional; design: scale not given: the % may be the effect or the level left
Rattus norvegicus [22] = assay: Reduction of testosterone level in Wistar rat plasma at 50 mg/kg, po after 8 hrs by ELISA relative to pretreatment value; assay type: functional; design: scale not given: the % may be the effect or the level left
CYP2C19 [23] = molecular target: T5, CYP2C19; assay: Inhibition of recombinant CYP2C19 at 10 uM; assay type: ADME
CYP1A2 [24] = molecular target: T8, CYP1A2; assay: Inhibition of recombinant CYP1A2 at 10 uM; assay type: ADME
CYP2D6 [25] = molecular target: T4, CYP2D6; assay: Inhibition of recombinant CYP2D6 at 1 uM; assay type: ADME

Structure (SMILES): CCC(c1ccc(-c2ccsc2Cl)cc1)n1ccnc1 (centres undefined)
inhibition at 1 µM (CYP3A4 [1]): 87%
inhibition at 0.2 µM [2]: 40%
pIC50 [3]: 6.58
inhibition at 2 µM [4]: 85%
inhibition at 10 µM (CYP3A4 [5]): 97%

Structure (SMILES): c1cn(Cc2ccc(-c3ccoc3)cc2)cn1
inhibition at 0.2 µM [2]: 3%
inhibition at 2 µM [4]: 29%

Structure (SMILES): Fc1ccc(-c2ccc(Cn3ccnc3)cn2)cc1
inhibition at 0.2 µM [2]: 5%
inhibition at 2 µM [4]: 5%

Structure (SMILES): ClCc1ccc(-c2ccc(Cn3ccnc3)cc2)cn1
inhibition at 0.2 µM [2]: 9%
inhibition at 2 µM [4]: 24%

Structure (SMILES): c1cn(Cc2ccc(-c3cncnc3)cc2)cn1
inhibition at 0.2 µM [2]: 5%
inhibition at 2 µM [4]: 3%

Structure (SMILES): CC(C)C(O)(c1ccc(-c2ccsc2)cc1)c1c[nH]cn1 (centres undefined)
inhibition at 0.2 µM [2]: 7%
inhibition at 2 µM [4]: 49%

Structure (SMILES): Fc1ccc(-c2csc(Cn3ccnc3)c2)cc1
inhibition at 0.2 µM [2]: 0%
inhibition at 2 µM [4]: 20%

Structure (SMILES): CCC(c1ccc(-c2ccc(SC)s2)cc1)n1ccnc1 (centres undefined)
inhibition at 0.2 µM [2]: 2%
inhibition at 2 µM [4]: 3%

Structure (SMILES): c1ccc(-c2csc(Cn3ccnc3)c2)cc1
inhibition at 0.2 µM [2]: 0%
inhibition at 2 µM [4]: 21%

The next lines start with results.

inhibition at 1 µM (CYP2B6 [6]): 49%
inhibition at 1 µM (CYP3A4 [1]): 80%
Cmax [7]: 1280 ng/mL
half-life [8]: 9.5 h
CL/F [10]: 33.5 mL/min/kg
inhibition at 10 µM (CYP2B6 [12]): 87%
inhibition at 10 µM (CYP2D6 [13]): 68%
inhibition at 1 µM (CYP2C19 [14]): 87%
inhibition at 10 µM (CYP2C9 [15]): 89%
pIC50 [16]: 6.17
Tmax [17]: 1 h
AUC(0-inf) [18]: 24900 ng·h/mL
inhibition at 0.2 µM [2]: 21%
pIC50 [3]: 6.02
inhibition at 1 µM (CYP1A2 [19]): 97%
inhibition at 1 µM (CYP2C9 [20]): 75%
inhibition at 10 µM (CYP2C19 [23]): 99%
inhibition at 2 µM [4]: 67%
inhibition at 10 µM (CYP3A4 [5]): 94%
inhibition at 10 µM (CYP1A2 [24]): 100%
inhibition at 1 µM (CYP2D6 [25]): 17%
Structure (SMILES): CC(c1ccc(-c2ccsc2)cc1)n1ccnc1 (centres undefined)
Activity (Rattus norvegicus [9]): 30.9%
Activity (Rattus norvegicus [11]): 29.7%
Activity (Rattus norvegicus [21]): 25.9%
Activity (Rattus norvegicus [22]): 34.1%

inhibition at 0.2 µM [2]: 3%
inhibition at 2 µM [4]: 35%
Structure (SMILES): CSc1ccc(-c2ccc(Cn3ccnc3)cc2)s1

inhibition at 0.2 µM [2]: 0%
inhibition at 2 µM [4]: 4%
Structure (SMILES): c1ccc(-c2ccc(Cn3ccnc3)cn2)cc1

inhibition at 1 µM (CYP2C19 [14]): 95%
inhibition at 10 µM (CYP2C9 [15]): 100%
inhibition at 0.2 µM [2]: 17%
inhibition at 1 µM (CYP1A2 [19]): 93%
inhibition at 1 µM (CYP2C9 [20]): 94%
inhibition at 10 µM (CYP2C19 [23]): 97%
inhibition at 2 µM [4]: 68%
inhibition at 10 µM (CYP1A2 [24]): 96%
Structure (SMILES): CCC(c1cc(-c2ccc(F)c(F)c2)cs1)n1ccnc1 (centres undefined)

inhibition at 0.2 µM [2]: 0%
inhibition at 2 µM [4]: 1%
Structure (SMILES): COc1cccc(-c2ccc(Cn3ccnc3)cn2)c1

inhibition at 0.2 µM [2]: 0%
inhibition at 2 µM [4]: 0%
Structure (SMILES): COc1ccc(-c2ccc(Cn3ccnc3)cn2)cc1

inhibition at 0.2 µM [2]: 5%
inhibition at 2 µM [4]: 12%
Structure (SMILES): CC(c1ccc(N2CCOCC2)cc1)n1ccnc1 (centres undefined)
